This is an account of results in patent US20240246942A1, “KINASE INHIBITORS FOR THE TREATMENT OF NEURODEGENERATIVE DISEASES” (priority 2020, published 2024).

Common to all, as to test: biochemical
Assay [1] deals with T1, panel of 374 wild-type kinases (Homo sapiens, UniProt P29376).
T1 construct: purchased Reaction Biology Corporation
As to conditions: kinase TYK1/LTK, read-out: % Enzyme Activity (relative to DMSO controls).

Assay [2] concerns the target T2, panel of 374 wild-type kinases (Homo sapiens, UniProt Q12866).
T2 construct: purchased Reaction Biology Corporation
T2 sequence (Q12866 21-999): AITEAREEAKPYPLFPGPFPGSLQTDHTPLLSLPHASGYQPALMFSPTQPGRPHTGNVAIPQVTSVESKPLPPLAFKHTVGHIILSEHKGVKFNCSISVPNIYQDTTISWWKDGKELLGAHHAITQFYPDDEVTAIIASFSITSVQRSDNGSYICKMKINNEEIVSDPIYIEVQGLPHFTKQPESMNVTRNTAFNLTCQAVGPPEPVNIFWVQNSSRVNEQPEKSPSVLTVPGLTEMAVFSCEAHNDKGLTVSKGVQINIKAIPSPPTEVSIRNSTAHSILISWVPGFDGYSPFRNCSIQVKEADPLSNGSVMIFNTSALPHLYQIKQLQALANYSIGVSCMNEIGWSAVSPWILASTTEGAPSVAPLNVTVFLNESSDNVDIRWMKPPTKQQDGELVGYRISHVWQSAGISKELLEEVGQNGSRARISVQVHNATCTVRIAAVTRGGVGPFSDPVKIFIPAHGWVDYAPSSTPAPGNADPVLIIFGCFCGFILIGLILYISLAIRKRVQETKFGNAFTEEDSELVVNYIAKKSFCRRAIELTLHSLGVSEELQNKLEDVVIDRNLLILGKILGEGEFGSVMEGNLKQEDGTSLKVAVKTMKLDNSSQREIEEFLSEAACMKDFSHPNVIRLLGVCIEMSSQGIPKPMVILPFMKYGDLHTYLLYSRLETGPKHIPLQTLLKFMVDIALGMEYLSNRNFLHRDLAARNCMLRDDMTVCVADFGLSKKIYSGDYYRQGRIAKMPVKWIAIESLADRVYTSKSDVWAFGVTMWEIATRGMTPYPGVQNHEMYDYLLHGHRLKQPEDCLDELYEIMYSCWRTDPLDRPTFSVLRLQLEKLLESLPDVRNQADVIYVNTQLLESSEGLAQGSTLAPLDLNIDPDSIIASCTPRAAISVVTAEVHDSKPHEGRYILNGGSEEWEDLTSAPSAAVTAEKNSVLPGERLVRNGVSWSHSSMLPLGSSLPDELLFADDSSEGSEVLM
As to conditions: read-out: % Enzyme Activity (relative to DMSO controls), c-MER.

For assay [3], the target named is T3, panel of 374 wild-type kinases (Homo sapiens, UniProt Q8IW41).
T3 construct: purchased Reaction Biology Corporation
T3 sequence (Q8IW41 1-473): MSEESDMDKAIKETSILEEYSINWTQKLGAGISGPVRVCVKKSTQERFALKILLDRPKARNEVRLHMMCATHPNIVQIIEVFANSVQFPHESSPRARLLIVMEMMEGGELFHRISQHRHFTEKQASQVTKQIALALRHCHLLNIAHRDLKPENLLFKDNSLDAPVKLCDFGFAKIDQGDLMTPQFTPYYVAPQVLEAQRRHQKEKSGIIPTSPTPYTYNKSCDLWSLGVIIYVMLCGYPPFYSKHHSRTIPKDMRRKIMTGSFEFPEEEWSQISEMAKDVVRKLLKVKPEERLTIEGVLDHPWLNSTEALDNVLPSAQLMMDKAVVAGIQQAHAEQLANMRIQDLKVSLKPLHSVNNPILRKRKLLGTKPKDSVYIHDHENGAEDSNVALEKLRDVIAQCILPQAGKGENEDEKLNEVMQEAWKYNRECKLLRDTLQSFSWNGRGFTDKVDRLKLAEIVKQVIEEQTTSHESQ
Particulars: read-out: % Enzyme Activity (relative to DMSO controls), MAPKAPK5/PRAK.

Assay [4] addresses T4, panel of 374 wild-type kinases (Homo sapiens, UniProt P00533).
T4 construct: purchased Reaction Biology Corporation
As to conditions: read-out: % Enzyme Activity (relative to DMSO controls), EGFR.

The target in assay [5] is T5, panel of 374 wild-type kinases (Homo sapiens, UniProt P42680).
T5 construct: purchased Reaction Biology Corporation
T5 sequence (P42680 1-631): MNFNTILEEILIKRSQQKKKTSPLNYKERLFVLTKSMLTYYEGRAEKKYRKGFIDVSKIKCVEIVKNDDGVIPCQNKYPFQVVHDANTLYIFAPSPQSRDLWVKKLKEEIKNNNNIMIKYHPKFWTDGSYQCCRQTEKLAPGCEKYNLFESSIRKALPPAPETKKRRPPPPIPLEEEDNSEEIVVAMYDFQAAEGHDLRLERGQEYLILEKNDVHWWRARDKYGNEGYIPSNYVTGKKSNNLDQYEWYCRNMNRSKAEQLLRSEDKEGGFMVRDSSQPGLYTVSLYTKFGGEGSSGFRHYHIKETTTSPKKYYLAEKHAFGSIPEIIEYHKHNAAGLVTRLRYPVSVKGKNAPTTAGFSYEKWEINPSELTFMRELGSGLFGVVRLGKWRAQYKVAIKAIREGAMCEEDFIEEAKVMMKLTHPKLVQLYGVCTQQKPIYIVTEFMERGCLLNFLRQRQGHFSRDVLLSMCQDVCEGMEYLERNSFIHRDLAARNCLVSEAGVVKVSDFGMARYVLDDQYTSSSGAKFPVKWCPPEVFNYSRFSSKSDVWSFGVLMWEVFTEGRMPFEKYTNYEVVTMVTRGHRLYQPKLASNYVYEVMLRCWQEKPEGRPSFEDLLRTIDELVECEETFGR
Particulars: read-out: % Enzyme Activity (relative to DMSO controls), kinase TEC.

Assay [6] has as its target T6, panel of 374 wild-type kinases (Homo sapiens, UniProt Q9H3Y6).
T6 construct: purchased Reaction Biology Corporation
Particulars: read-out: % Enzyme Activity (relative to DMSO controls), kinase SRMS.

Assay [7] addresses T7, panel of 374 wild-type kinases (Homo sapiens, UniProt P12931).
T7 construct: purchased Reaction Biology Corporation
Particulars: read-out: % Enzyme Activity (relative to DMSO controls), c-Src.

In assay [8] the target is T8, panel of 374 wild-type kinases (Homo sapiens, UniProt O00506).
T8 construct: purchased Reaction Biology Corporation
As to conditions: read-out: % Enzyme Activity (relative to DMSO controls), kinase STK25/YSK1.

T7 sequence (P12931 whole entry): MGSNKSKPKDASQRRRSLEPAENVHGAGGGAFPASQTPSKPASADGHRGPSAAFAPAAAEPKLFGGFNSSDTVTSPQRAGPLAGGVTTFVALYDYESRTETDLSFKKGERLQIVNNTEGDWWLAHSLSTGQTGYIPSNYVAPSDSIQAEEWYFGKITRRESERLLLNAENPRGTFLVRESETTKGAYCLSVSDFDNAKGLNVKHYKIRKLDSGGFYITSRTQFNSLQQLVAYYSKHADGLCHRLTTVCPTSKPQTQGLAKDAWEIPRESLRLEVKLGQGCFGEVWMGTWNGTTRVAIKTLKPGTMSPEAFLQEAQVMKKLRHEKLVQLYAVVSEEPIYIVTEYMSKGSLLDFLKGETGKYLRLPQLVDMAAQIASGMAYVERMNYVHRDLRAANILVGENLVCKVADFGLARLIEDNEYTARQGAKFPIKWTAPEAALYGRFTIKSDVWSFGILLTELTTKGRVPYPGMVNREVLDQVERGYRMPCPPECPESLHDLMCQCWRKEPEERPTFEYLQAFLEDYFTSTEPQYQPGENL
T8 sequence (O00506 whole entry): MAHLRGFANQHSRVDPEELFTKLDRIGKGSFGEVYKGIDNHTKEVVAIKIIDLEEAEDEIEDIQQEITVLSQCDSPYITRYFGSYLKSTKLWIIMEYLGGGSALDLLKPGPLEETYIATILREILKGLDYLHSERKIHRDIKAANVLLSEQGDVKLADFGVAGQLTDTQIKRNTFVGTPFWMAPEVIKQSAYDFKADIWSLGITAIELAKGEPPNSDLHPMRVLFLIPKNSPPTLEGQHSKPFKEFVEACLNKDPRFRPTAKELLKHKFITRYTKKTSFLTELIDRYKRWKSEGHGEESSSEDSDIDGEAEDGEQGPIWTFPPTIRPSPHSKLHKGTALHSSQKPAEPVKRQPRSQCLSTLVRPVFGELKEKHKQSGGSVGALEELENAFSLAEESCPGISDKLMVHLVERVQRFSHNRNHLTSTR
T4 sequence (P00533 25-1210): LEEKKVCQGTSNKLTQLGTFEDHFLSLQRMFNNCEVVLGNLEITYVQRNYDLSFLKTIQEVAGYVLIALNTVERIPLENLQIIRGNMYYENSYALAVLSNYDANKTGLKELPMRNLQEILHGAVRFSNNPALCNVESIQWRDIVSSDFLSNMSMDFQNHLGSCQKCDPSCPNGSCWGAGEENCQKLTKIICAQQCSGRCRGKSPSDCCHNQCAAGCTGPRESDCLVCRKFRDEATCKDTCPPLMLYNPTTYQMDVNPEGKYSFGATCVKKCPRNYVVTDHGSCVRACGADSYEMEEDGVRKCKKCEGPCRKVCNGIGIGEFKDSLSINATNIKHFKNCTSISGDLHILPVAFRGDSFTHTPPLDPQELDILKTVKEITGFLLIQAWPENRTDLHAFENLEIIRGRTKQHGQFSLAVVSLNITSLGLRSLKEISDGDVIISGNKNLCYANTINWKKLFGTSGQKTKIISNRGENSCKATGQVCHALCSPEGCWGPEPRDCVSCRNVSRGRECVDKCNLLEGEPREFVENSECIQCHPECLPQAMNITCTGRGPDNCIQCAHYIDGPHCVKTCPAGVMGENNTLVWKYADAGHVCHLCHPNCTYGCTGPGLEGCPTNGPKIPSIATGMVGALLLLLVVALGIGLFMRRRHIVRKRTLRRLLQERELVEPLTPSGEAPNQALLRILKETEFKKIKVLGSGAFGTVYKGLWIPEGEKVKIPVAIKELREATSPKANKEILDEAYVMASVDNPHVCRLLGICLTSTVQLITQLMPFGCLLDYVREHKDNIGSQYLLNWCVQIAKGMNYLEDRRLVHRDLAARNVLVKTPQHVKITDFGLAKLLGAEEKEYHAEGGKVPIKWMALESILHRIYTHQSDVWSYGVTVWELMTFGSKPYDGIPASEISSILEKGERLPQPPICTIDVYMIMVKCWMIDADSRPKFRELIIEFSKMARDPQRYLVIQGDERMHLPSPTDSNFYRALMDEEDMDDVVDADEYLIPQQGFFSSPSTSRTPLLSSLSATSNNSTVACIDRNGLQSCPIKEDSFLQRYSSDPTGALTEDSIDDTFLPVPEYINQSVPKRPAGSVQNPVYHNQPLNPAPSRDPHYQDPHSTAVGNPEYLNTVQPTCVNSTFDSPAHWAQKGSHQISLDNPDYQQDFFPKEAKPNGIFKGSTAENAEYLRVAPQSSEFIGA
T6 sequence (Q9H3Y6 whole entry): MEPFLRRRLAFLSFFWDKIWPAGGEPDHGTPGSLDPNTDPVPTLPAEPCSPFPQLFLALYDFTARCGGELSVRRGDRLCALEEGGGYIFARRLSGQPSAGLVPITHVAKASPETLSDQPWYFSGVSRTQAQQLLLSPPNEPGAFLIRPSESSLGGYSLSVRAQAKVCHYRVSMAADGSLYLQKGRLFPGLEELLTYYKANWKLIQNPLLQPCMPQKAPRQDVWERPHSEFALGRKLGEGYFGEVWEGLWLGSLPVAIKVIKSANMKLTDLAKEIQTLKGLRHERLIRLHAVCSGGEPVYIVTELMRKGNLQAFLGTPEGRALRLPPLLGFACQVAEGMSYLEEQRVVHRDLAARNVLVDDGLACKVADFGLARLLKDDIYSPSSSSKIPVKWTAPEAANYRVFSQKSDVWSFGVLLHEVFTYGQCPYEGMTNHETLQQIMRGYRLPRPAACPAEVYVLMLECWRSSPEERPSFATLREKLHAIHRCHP
T1 sequence (P29376 17-864): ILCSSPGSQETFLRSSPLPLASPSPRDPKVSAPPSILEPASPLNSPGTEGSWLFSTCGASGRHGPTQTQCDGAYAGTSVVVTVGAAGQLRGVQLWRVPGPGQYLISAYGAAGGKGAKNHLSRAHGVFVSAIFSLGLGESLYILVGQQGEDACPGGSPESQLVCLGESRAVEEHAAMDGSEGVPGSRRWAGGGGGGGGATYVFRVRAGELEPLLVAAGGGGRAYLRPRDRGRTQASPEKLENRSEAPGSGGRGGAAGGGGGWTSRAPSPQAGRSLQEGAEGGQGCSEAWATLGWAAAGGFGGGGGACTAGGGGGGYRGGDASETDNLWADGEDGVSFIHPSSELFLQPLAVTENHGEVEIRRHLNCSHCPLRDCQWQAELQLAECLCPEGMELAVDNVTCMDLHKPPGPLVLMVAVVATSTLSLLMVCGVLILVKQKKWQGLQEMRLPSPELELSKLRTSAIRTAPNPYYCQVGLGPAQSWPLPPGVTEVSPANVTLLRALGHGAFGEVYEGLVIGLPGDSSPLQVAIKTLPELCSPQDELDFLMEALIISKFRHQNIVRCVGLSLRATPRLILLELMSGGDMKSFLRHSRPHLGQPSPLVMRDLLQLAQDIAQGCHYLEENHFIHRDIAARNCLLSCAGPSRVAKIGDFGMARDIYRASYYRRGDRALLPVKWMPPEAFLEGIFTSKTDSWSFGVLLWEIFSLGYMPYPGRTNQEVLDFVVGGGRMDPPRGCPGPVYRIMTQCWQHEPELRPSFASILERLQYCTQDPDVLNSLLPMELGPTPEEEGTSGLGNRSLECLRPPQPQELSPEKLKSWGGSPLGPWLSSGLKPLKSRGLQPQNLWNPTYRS

With `Cc1sc(C(=O)NC2COC2)cc1-n1cc(NC(=O)Nc2c(F)cccc2Cl)cn1` [Compound 27, 4-(4-(3-(2-chloro-6-fluorophenyl)ureido)-1H-pyrazol-1-yl)-5-methyl-N-(oxetan-3-yl)thiophene-2-carboxamide], the remaining activity at 10 µM is 114% in assay [1] (10 uM); 103% in assay [2] (10 uM); 96.5% in assay [3] (10 uM); 98.5% in assay [4] (10 uM); 91.1% in assay [5] (10 uM); 104% in assay [6] (10 uM). The remaining activity at 10 µM in assay [7] (10 uM) amounted to 96.6%; in assay [8] (10 uM), 70.5%.
On to `O=C(Nc1cnn(-c2csc(C(=O)NC3COC3)c2)c1)Nc1c(F)cccc1Cl` [Compound 25, 4-(4-(3-(2-chloro-6-fluorophenyl)ureido)-1H-pyrazol-1-yl)-N-(oxetan-3-yl)thiophene-2-carboxamide], for which the remaining activity at 5 µM in assay [1] amounted to 92.2%; in assay [2], 77.1%; in assay [3], 99.7%; in assay [4], 89.4%; in assay [5], 97.7%; in assay [6], 105%. Also, the remaining activity at 5 µM in assay [7] is 98.4%; in assay [8], 96.1%.
Turning to `O=C(Nc1cnn(-c2csc(C(=O)NC3COC3)c2)c1)Nc1ccccc1Cl` [Compound 17, 4-(4-(3-(2-chlorophenyl)ureido)-1H-pyrazol-1-yl)-N-(oxetan-3-yl)thiophene-2-carboxamide], the remaining activity at 5 µM was determined as 99.2% in assay [1]; 92.7% in assay [2]; 92.8% in assay [3]; 99.7% in assay [4]; 97.2% in assay [5]; 99.8% in assay [6]. The remaining activity at 5 µM in assay [7] worked out at 91.1%; in assay [8], 106%.
